Measured values reported in publication PMC12152147, “DDB1 engagement defines the selectivity of S656 analogs for cyclin K degradation over CDK inhibition” (EMBO Reports, 2025).
pIC50: −log10 of the molar value. “And” between values parts separate entries of the source, which are not always exact repeats. Equal entries are not always repeated. Where two headings read alike, the source gives them in different places.

What was measured:
[1] = tested on: OCI-AML5 cells; assay: Dose-response proliferative assay in OCI-AML5 (4 days, CellTiterGlo); format: cell-based, H. sapiens; conditions: OCI-AML5 cells; read-out: IC50 in AML5
How it was run: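 OCI-AML5 cells in αMEM, 10% heat-inactivated FBS plus 10 ng/mL GM-CSF, 300 cells/well, exposed to 8-point 1:4 serial dilutions (10 μM down to 0.5 nM). Viability read after 4 days in culture at 37 °C, 5% CO2.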

[2] = tested on: primary AML specimens; assay: Dose-response assays in primary AML specimens (6 days, CellTiterGlo); format: cell-based, human; conditions: 6 days, read-out: IC50
How it was run: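 Primary AML cells in IMDM/15% BIT with SCF, FLT3L, IL3, G-CSF, SR1 and UM729 were exposed to 8-point 1:4 dilutions (10 μM to 0.5 nM) for 6 days. Viability came from CellTiterGlo luminescence, with % inhibition versus DMSO (0.1%) fitted by nonlinear regression.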

[3] = target: T1, CDK9/CyclinT (Homo sapiens, UniProt P50750); assay: CDK9/CyclinT in vitro kinase activity, single concentration 1 μM; format: biochemical; conditions: single concentration 1 μM
T1 construct: purchased BPS Bioscience 79628
T1 sequence (P50750 whole entry): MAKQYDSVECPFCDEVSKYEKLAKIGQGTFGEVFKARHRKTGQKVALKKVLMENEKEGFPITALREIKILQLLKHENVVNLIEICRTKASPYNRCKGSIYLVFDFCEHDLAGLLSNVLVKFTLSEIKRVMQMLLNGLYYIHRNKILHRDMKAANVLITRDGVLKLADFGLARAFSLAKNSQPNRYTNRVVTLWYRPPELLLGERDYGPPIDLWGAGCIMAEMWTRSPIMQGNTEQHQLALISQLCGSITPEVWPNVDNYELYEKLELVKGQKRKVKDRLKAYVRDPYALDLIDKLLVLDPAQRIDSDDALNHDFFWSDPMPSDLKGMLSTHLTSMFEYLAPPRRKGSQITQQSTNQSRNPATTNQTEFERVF
T1 sequence (O60563 whole entry partner): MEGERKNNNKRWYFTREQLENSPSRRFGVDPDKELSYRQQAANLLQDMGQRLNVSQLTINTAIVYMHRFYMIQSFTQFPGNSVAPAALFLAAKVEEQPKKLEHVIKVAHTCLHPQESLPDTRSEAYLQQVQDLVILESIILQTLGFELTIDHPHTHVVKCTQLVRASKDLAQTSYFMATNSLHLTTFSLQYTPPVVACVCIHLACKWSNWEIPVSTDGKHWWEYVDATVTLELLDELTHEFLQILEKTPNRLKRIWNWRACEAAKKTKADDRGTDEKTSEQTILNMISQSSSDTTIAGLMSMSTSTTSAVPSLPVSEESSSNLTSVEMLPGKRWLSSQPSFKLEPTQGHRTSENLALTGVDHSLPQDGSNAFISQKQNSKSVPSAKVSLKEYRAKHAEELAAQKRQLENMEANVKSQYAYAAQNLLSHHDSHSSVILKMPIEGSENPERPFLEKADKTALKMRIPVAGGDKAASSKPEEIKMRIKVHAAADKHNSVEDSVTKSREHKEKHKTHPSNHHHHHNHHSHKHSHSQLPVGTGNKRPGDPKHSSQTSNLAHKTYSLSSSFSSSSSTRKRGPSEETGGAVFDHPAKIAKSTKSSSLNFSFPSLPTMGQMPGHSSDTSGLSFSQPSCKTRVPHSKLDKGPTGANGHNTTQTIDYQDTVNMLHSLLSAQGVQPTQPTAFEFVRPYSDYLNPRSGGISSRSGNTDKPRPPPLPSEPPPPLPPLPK
Experimental: (§1) Kinase activity was assessed using the kinase assay kits from BPS Bioscience for CDK1, CDK9 and CDK12 with Kinase Glo MAX in duplicates. Compounds were tested at a single concentration of 1 μM for CDK1 and CDK9 activity, and in a dilution ranging from 0.64 nM to 50 μM for CDK12 activity. Chemiluminescence was read using the Neo Synergy BioTek plate reader.

[4] = tested on: OCI-AML5 cells expressing shRNAs targeting CDK1, 2, 4, 7, 9, cyclin K; assay: Dose response in OCI-AML5 expressing shRNAs targeting CDK1, 2, 4, 7, 9, cyclin K or control; format: cell-based, H. sapiens; conditions: for pIC50: OCI-AML5, 4 days
[5] = target: T2, CDK12/Cyclin K (Homo sapiens, UniProt Q9NYV4); assay: CDK12/CyclinK in vitro kinase assay (BPS kit, Kinase Glo MAX); format: biochemical; conditions: in % (unit assumed)
T2 construct: purchased BPS Bioscience 78298
T2 sequence (Q9NYV4 whole entry): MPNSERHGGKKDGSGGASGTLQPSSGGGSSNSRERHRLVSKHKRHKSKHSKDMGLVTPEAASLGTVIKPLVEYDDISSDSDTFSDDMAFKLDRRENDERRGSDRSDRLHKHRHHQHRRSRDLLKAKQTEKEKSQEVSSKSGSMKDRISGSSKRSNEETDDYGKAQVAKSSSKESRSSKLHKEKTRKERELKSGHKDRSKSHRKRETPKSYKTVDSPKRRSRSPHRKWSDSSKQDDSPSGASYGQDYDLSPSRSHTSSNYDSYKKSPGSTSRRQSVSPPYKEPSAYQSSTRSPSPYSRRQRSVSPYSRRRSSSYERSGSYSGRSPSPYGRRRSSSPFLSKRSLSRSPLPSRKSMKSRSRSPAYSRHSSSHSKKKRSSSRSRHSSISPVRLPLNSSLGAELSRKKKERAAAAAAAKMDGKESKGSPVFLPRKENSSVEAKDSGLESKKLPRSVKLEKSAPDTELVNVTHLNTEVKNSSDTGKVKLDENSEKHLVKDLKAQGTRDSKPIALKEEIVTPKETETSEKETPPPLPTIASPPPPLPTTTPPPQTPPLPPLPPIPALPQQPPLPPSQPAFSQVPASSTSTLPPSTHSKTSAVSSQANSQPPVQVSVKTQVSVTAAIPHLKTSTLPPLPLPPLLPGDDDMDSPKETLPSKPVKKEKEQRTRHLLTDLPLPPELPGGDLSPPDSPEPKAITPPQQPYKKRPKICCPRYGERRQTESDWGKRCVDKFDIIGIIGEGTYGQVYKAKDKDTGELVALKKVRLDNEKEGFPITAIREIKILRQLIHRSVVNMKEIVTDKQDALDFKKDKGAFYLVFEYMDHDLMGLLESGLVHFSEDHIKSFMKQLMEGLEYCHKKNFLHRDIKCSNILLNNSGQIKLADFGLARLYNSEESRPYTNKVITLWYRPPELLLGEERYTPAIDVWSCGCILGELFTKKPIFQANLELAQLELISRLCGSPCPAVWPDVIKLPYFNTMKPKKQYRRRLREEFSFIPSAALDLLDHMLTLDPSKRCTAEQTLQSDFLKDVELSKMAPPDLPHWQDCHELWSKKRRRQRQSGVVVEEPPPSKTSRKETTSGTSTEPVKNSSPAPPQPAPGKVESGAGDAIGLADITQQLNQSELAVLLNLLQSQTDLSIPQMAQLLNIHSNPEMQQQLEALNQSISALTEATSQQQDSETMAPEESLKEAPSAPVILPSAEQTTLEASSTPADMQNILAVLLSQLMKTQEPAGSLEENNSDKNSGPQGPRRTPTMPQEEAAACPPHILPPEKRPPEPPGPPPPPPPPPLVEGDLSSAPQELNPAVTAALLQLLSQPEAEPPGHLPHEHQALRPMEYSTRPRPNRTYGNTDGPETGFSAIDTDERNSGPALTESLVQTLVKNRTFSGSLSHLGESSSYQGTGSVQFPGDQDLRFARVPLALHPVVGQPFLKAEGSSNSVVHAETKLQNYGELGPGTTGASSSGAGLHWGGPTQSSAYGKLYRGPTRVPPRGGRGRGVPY
T2 sequence (O75909 whole entry partner): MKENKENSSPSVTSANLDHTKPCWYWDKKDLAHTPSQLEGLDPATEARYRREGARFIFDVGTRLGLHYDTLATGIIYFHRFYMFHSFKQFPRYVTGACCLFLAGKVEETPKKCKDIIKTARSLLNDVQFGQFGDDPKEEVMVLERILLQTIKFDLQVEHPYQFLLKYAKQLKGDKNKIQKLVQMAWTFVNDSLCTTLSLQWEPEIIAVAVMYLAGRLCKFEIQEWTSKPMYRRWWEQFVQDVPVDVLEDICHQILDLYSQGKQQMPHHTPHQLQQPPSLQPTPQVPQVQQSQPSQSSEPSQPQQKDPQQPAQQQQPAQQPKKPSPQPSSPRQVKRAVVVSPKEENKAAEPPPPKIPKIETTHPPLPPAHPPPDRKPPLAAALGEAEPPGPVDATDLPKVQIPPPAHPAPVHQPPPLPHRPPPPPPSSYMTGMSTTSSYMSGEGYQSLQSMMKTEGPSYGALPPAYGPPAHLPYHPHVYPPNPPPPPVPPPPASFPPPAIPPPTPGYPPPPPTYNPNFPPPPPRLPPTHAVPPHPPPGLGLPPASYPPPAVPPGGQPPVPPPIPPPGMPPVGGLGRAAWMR
Experimental: as §1

[6] = tested on: cyclin KeGFP; assay: Cyclin KeGFP reporter system (eGFP/mCherry MFI by flow cytometry); format: cell-based, H. sapiens
How it was run: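 OCI-AML5 clone G7 carrying lentiviral cyclin KeGFP/mCherry reporter. eGFP and mCherry geometric MFI measured by flow cytometry; eGFP/mCherry ratio normalized to DMSO-treated cells.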

`CC[C@H](CO)Nc1nc(NCc2ccc(-c3ccccn3)cc2)c2ncn(C(C)C)c2n1` [CR8] showed a pIC50 [1] of 7.25, a pIC50 ([2]; primary AML specimen 03H109) of 7.31 and a pIC50 ([2]; primary AML specimen 04H055) of 6.91. It also gave a pIC50 ([2]; primary AML specimen 04H096) of 7.26, a pIC50 ([2]; primary AML specimen 04H138) of 6.90 and a pIC50 ([2]; primary AML specimen 05H113) of 7.31. The pIC50 ([2]; primary AML specimen 05H149) was 7.18, the pIC50 ([2]; primary AML specimen 05H193) was 7.20 and the pIC50 ([2]; primary AML specimen 06H088) was 7.13. It also gave a pIC50 ([2]; primary AML specimen 06H117) of 7.22, a pIC50 ([2]; primary AML specimen 06H151) of 7.37 and a pIC50 ([2]; primary AML specimen 07H003) of 6.89. It also gave a pIC50 ([2]; primary AML specimen 07H131) of 6.81, a pIC50 ([2]; primary AML specimen 07H144) of 7.28 and a pIC50 ([2]; primary AML specimen 07H155) of 6.84. For the same compound, the pIC50 ([2]; primary AML specimen 08H018) was 6.91, the pIC50 ([2]; primary AML specimen 08H021) was 7.27 and the pIC50 ([2]; primary AML specimen 08H056) was 6.87. For the same compound, the pIC50 ([2]; primary AML specimen 08H063) was 6.83, the pIC50 ([2]; primary AML specimen 08H085) was 7.20 and the pIC50 ([2]; primary AML specimen 08H108) was 6.90. It also gave a pIC50 ([2]; primary AML specimen 08H118) of 7.30, a pIC50 ([2]; primary AML specimen 09H016) of 7.29 and a pIC50 ([2]; primary AML specimen 09H070) of 6.85. The pIC50 ([2]; primary AML specimen 10H014) was 7.41, the pIC50 ([2]; primary AML specimen 10H046) was 7.22 and the pIC50 ([2]; primary AML specimen 10H107) was 7.11. The pIC50 ([2]; primary AML specimen 10H127) was 7.03, the pIC50 ([2]; primary AML specimen 10H161) was 7.12 and the pIC50 ([2]; primary AML specimen 10H174) was 7.26. It also gave a pIC50 ([2]; primary AML specimen 11H008) of 7.07, a pIC50 ([2]; primary AML specimen 11H019) of 7.16 and a pIC50 ([2]; primary AML specimen 11H170) of 6.79. The pIC50 ([2]; primary AML specimen 11H217) was 6.89, the pIC50 ([2]; primary AML specimen 11H232) was 7.15 and the pIC50 ([2]; primary AML specimen 12H033) was 6.97. For the same compound, the pIC50 ([2]; primary AML specimen 12H055) was 7.00, the pIC50 ([2]; primary AML specimen 12H148) was 7.13 and the pIC50 ([2]; primary AML specimen 13H053) was 6.88. The pIC50 ([2]; primary AML specimen 15H045) was 7.36, the pIC50 ([2]; primary AML specimen 17H065) was 7.03 and the “% CDK9 inhibition” value [3] was 100%. The pIC50 ([4]; read-out: IC50, sh CDK1) was 7.16 and 6.95 and 7.04, the pIC50 ([4]; read-out: IC50, sh CDK2) was 7.17 and 7.09 and 7.02 and the pIC50 ([4]; read-out: IC50, sh CDK4) was 7.21 and 7.12 and 7.20. For the same compound, the pIC50 ([4]; read-out: IC50, sh CDK7) was 7.21 and 7.08 and 7.16, the pIC50 ([4]; read-out: IC50, sh CDK9) was 7.26 and 7.22 and 7.35 and the pIC50 ([4]; read-out: IC50, sh Cyclin K) was 7.88 and 7.81 and 7.69. For the same compound, the pIC50 ([4]; read-out: IC50, sh ctrl) was 7.25 and 7.15, the Class ([4]; class from shRNA IC50 profile and cyclin K-eGFP degradation) was 1 and the “in vitro inhibition of CDK12/Cyclin K activity” value ([5]; Log10 (uM) 1) was 58.77 and 64.89 and 109.89. For the same compound, the “in vitro inhibition of CDK12/Cyclin K activity” value ([5]; Log10 (uM) 1.69897) was 81.16 and 77.06 and 130.98, the “in vitro inhibition of CDK12/Cyclin K activity” value ([5]; Log10 (uM) -0.39794) was 16.88 and 18.59 and 15.49 and the “MFI of cyclin KeGFP over mCherry” value ([6]; OCI-AML5 G7 clone, 3 h, 10 μM, normalized to DMSO (=100)) was 13.6 and 15.4 and 15.2 and 15.3 and 14.9. For the same compound, the “% degradation cyclin K-eGFP” value ([6]; cyclin K-eGFP reporter) was 86%.
